Where a name gives a salt, the structure may show the parent alone.
Legend:
[1] = system: Cox standard strain albino male mice; assay: Mouse writhing inhibition assay (acetic acid-induced writhing); type: in vivo; details: po, p.o. administration (gavage, 5% acacia suspension, sixty minutes before acetic acid), dose required to inhibit induced writhing by fifty percent
Text: Mouse Writhing Inhibition Assay
Writhing, characterized by contraction of the abdominal musculature, extension of the hindlegs, and rotation of the trunk, was induced in Cox standard strain albino male mice. The mice,. weighing 18-24 grams, were fasted overnight and given the test compound by gavage in an acacia suspension (5%) sixty minutes before writhing was induced by the intraperitoneal administration of acetic acid (0.60 percent). Each treatment group consisted of 5 mice. The total number of writhes for the treatment group was determined during a 10-minute observation starting 5 minutes after acetic acid administration.
The results in the mouse writhing assay are presented as the effective dose in mg./kg. of the tested compound required to inhibit induced writhing in the test animals by fifty percent (ED50). Results are presented in Column II for both subcutaneous (s.c.) and oral (p.o.) administration of the test compound as compared to the reference compound meperidine.

[2] = system: Cox standard strain albino male mice; assay: as above; type: in vivo; details: sc, s.c. administration, dose required to inhibit acetic acid (0.60 percent, i.p.) induced writhing by fifty percent

Row | Structure (SMILES) | ED50 [1] | ED50 [2]
1 | COc1ccc2c(c1)C13CCCC1(CC2)CNCC3.Cl (stereo not shown) [Example 3, 1,2,3,4,5,6-hexahydro-9-methoxy-4a,10b-propanobenz[f]isoquinoline hydrochloride] | 66 mg/kg | 56 mg/kg
2 | CN1CCC23CCCC2(CCc2ccc(O)cc23)C1 (racemic) [Example 2, 1,2,3,4,5,6-hexahydro-3-methyl-4a,lOb-propanobenz[f]isoquinolin-9-ol maleate] | 17 mg/kg | 2.4 mg/kg
3 | Oc1ccc2c(c1)C13CCCC1(CC2)CN(CC1CC1)CC3 (stereo not shown) [Example 6, 1,2,3,4,5,6-hexahydro-3-cyclopropylmethyl-4a,10b-propanobenz[f]isoquinolin-9-ol] | > 80 mg/kg | 60 mg/kg
4 | COc1ccc2c(c1)C13CCCC1(CC2)CN(C)CC3.Cl (stereo not shown) [Example 1, 1,2,3,4,5,6-hexahydro-3-methyl-9-methoxy-4a,10b-propanobenz[f]isoquinoline hydrochloride] | 23 mg/kg | 17 mg/kg
5 | C=CCN1CCC23CCCC2(CCc2ccc(O)cc23)C1 (stereo not shown) [Example 7, 1,2,3,4,5,6-hexahydro-3-(2-propenyl)-4a,10b-propanobenz-[f]isoquinolin-9-ol] | > 80 mg/kg | > 80 mg/kg
6 | CN1CCC23CCCC2(CCc2ccccc23)C1 (racemic) [Example 8, 1,2,3,4,5,6-hexahydro-3-methyl-propanobenz-[f]isoquinoline hydrobromide] | 68 mg/kg | 23 mg/kg
7 | CCOC(=O)C1(c2ccccc2)CCN(C)CC1 [meperidine, reference compound] | 21 mg/kg | 2.8 mg/kg
8 | Oc1ccc2c(c1)C13CCCC1(CC2)CNCC3 (stereo not shown) [Example 4, 1,2,3,4,5,6-hexahydro-4a,10b-propanobenz[f]-isoquinolin-9-ol] | 78 mg/kg | 52 mg/kg

Reference: EP0106487A2, “Improvements in or relating to novel bridged hexahydrobenz(f)isoquinolines” (ELI LILLY AND COMPANY, priority 1982, dated 1984)
